We go through 7 molecules from ChEMBL document CHEMBL1201862, “PubChem BioAssay data set” (2004).

Some test systems named below: M14; CCRF-CEM; Hs-578T; OVCAR-8; RXF 393; SF-268; HOP-62; HCC 2998; HCT-15; K562; MCF7; UACC-62; NCI-H460; SK-OV-3; SN12C; NCI-H23; SK-MEL-28; MDA-N; SF-539; UO-31.
Common to all, as to assay: inhibition of tumour cell growth, NCI panel, 48 h

SMILES strings stand for the structures.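 Protocol summary: plate cells (96-well), add compound at 5 concentrations, incubate 48 h, interpolate endpoints linearly. At the GI50, growth is halved.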 The source made the active and inactive calls. Cut-off read from the data, not from the text of the source: active = GI50 up to about 1.1 µM and inactive = higher.

Regarding `O=[N+]([O-])c1cccc2nc3ccccc3c(NCCCn3ccnc3[N+](=O)[O-])c12`, the GI50 in the test on M14 was < 0.0001 µM (active); with CCRF-CEM it was 0.00574 µM (active); in the test with Hs-578T, 0.0169 µM (active); with OVCAR-8 it was 0.000111 µM (active); in the test on RXF 393, 0.000139 µM (active); in the test on SF-268, 0.000819 µM (active). Also, the GI50 in the test on HOP-62 is 0.000785 µM (active); in the test with HCC 2998 it was 0.000156 µM (active); in the test on HCT-15, 0.000131 µM; with K562, < 0.0001 µM (active); in the test on MCF7, < 0.0001 µM (active); in the test with UACC-62, 0.000959 µM (active). Further, the GI50 is < 0.0001 µM (active) in the test on NCI-H460; 0.0229 µM (active) with SK-OV-3; 0.000282 µM (active) with SN12C; 0.0003 µM (active) in the test with NCI-H23; 0.00189 µM (active) with SK-MEL-28; < 0.0001 µM (active) in the test on MDA-N. For the same molecule, the GI50 in the test on SF-539 was 0.00137 µM (active); with UO-31, 0.00076 µM (active).

With `CCOC(=O)c1ccc(-c2cccs2)n1C`, the GI50 is > 100 µM (inactive) with M14; 71.8 µM (inactive) in the test on CCRF-CEM; 43.4 µM (inactive) in the test with Hs-578T; > 100 µM (inactive) in the test with OVCAR-8; > 66.5 µM (inactive) with RXF 393; > 100 µM (inactive) with SF-268. In addition, the GI50 was > 55.5 µM (inactive) in the test with HOP-62; > 100 µM (inactive) in the test with HCC 2998; 51.5 µM in the test on HCT-15; 60.5 µM (inactive) in the test on K562; > 96.4 µM (inactive) in the test with MCF7; 58.5 µM (inactive) in the test with UACC-62. Moreover, the GI50 is > 100 µM (inactive) in the test with NCI-H460; > 87.3 µM (inactive) with SK-OV-3; > 100 µM (inactive) in the test with SN12C; > 86.7 µM (inactive) with NCI-H23; > 100 µM (inactive) in the test with SK-MEL-28; > 96.2 µM (inactive) in the test on MDA-N. Moreover, the GI50 was > 100 µM (inactive) in the test on SF-539 and 43.7 µM (inactive) in the test on UO-31.

Take `Cc1ccc(-n2cc(-c3ccc(Cl)cc3)c3c2N=CN2N=C(c4ccco4)NC32)cc1` (stereo not given): the GI50 is 28.8 µM (inactive) with M14; 21 µM (inactive) in the test on CCRF-CEM; 2.05 µM (inactive) with Hs-578T; 6.28 µM (inactive) in the test with OVCAR-8; 11.2 µM (inactive) in the test with RXF 393; 15.3 µM (inactive) in the test with SF-268. The GI50 is 7.64 µM (inactive) in the test with HOP-62; > 100 µM (inactive) in the test with HCC 2998; over 100 µM in the test on HCT-15; 7.41 µM (inactive) with K562; 23.7 µM (inactive) in the test on MCF7; 13.1 µM (inactive) in the test on UACC-62. Moreover, the GI50 is 4.49 µM (inactive) with NCI-H460; 4.13 µM (inactive) in the test with SK-OV-3; 3.62 µM (inactive) in the test on SN12C; 19.7 µM (inactive) in the test with NCI-H23; 71 µM (inactive) in the test on SK-MEL-28; 19.5 µM (inactive) with MDA-N. Further, the figures for the GI50 in the test with SF-539 and with UO-31 were 15.2 µM (inactive) and 5.05 µM (inactive), respectively.

For `COc1cc2c[n+](C)c3c4ccccc4ccc3c2cc1OC`, the GI50 was 18.1 µM (inactive) in the test on M14; 6.5 µM (inactive) in the test on CCRF-CEM; 2.51 µM (inactive) in the test with Hs-578T; 2.71 µM (inactive) in the test on OVCAR-8; 14.6 µM (inactive) in the test with RXF 393; 0.224 µM (active) in the test with SF-268. Besides, the GI50 in the test with HOP-62 is 18.6 µM (inactive); in the test with HCC 2998 it was 4.81 µM (inactive); in the test on HCT-15 it was over 100 µM; in the test with K562, 1.4 µM (inactive); in the test with MCF7 it was 3.66 µM (inactive); in the test with UACC-62 it was 4.6 µM (inactive). In addition, the GI50 in the test with NCI-H460 was 10 µM (inactive); in the test on SK-OV-3, 6.08 µM (inactive); in the test on SN12C it was 1.32 µM (inactive); in the test on NCI-H23, 2.6 µM (inactive); with SK-MEL-28, 3.42 µM (inactive); in the test with MDA-N it was 4.45 µM (inactive). Also, the GI50 was 6.17 µM (inactive) in the test with SF-539 and > 75.5 µM (inactive) in the test on UO-31.

For the molecule `S=C1Cc2c(-c3ccc(Cl)cc3)cc(-c3ccccc3)nc2-c2ccccc2N1`, the GI50 in the test on M14 was 12.8 µM (inactive); with CCRF-CEM, 26.2 µM (inactive); in the test with Hs-578T it was 3.56 µM (inactive); in the test with OVCAR-8, 2.86 µM (inactive); in the test with RXF 393 it was 6.56 µM (inactive); in the test on SF-268, 14.3 µM (inactive). Further, the GI50 in the test on HOP-62 is 6.98 µM (inactive); with HCC 2998 it was 23.9 µM (inactive); in the test with HCT-15 it was 21.1 µM; in the test on K562 it was > 100 µM (inactive); with MCF7, 17.1 µM (inactive); in the test on UACC-62, 14.6 µM (inactive). Also, the GI50 with NCI-H460 was 13 µM (inactive); in the test on SK-OV-3, 10.6 µM (inactive); in the test on SN12C it was 13.5 µM (inactive); in the test on NCI-H23, 11.6 µM (inactive); in the test with SK-MEL-28 it was 13.8 µM (inactive); with MDA-N, 14 µM (inactive). For the same molecule, the GI50 is 4.01 µM (inactive) with SF-539 and 14.8 µM (inactive) in the test on UO-31.

For the molecule `CC(C)C(Cl)CC/C(CBr)=C(\Cl)CCl` (stereo not given), the GI50 with M14 was 1.85 µM (inactive); in the test with CCRF-CEM, 0.225 µM (active); in the test on Hs-578T, 2.9 µM (inactive); in the test on OVCAR-8, 2 µM (inactive); in the test on RXF 393, 2.8 µM (inactive); in the test with SF-268, 7.18 µM (inactive). Moreover, the GI50 in the test with HOP-62 is 17.1 µM (inactive); in the test with HCC 2998, 13.7 µM (inactive); in the test on HCT-15, 2.89 µM; with K562, 0.723 µM (active); in the test on MCF7 it was 0.646 µM (active); in the test with UACC-62, 2.24 µM (inactive). The GI50 in the test with NCI-H460 is 13.4 µM (inactive); in the test on SK-OV-3 it was 6.1 µM (inactive); with SN12C, 4.73 µM (inactive); in the test with NCI-H23 it was 2.67 µM (inactive); in the test with SK-MEL-28, 3.37 µM (inactive); with MDA-N, 2.05 µM (inactive). Further, the GI50 in the test on SF-539 is 15.7 µM (inactive); in the test on UO-31, 16.9 µM (inactive).

With `COc1cc(-c2cn(S(=O)(=O)c3ccc(C)cc3)c3ccccc23)nc(-c2cn(S(=O)(=O)c3ccc(C)cc3)c3ccccc23)n1`, the GI50 with M14 was 0.478 µM (active); in the test on CCRF-CEM it was 12.2 µM (inactive); in the test on Hs-578T, 0.433 µM (active); in the test on OVCAR-8 it was 0.94 µM (active); in the test on RXF 393, 0.372 µM (active); in the test with SF-268, 0.755 µM (active). Also, the GI50 was 1.84 µM (inactive) with HOP-62; 0.516 µM (active) in the test on HCC 2998; 0.592 µM in the test with HCT-15; 0.373 µM (active) with K562; 0.395 µM (active) in the test on MCF7; 0.632 µM (active) in the test with UACC-62. In addition, the GI50 in the test on NCI-H460 was 0.388 µM (active); in the test with SK-OV-3, 2.25 µM (inactive); in the test with SN12C, 1.85 µM (inactive); in the test with NCI-H23, 0.245 µM (active); in the test on SK-MEL-28, 23.3 µM (inactive); in the test with MDA-N it was 0.441 µM (active). The GI50 in the test on SF-539 is 0.222 µM (active); in the test on UO-31, 0.968 µM (active).
